Experimental data as given in ChEMBL document CHEMBL1201862, “PubChem BioAssay data set” (2004).
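48-hour exposure; five concentrations; linearly interpolated endpoints. Here, GI50 denotes the concentration required for 50% inhibition of growth.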 Active and inactive are the calls of the source. No stated cut-off is given here; in the data, active = GI50 up to about 1.1 µM and inactive = higher.

Legend:
Assay in all cases: NCI-60 cell line screen, 48 h
COLO 205 = tested on: COLO 205
SNB-75 = tested on: SNB-75
NCI-H226 = tested on: NCI-H226
U-251 = tested on: U-251
HCT-15 = tested on: HCT-15
IGROV-1 = tested on: IGROV-1
NCI-H460 = tested on: NCI-H460
CAKI-1 = tested on: CAKI-1
RXF 393 = tested on: RXF 393
SF-295 = tested on: SF-295
SNB-19 = tested on: SNB-19
HCC 2998 = tested on: HCC 2998
NCI-H522 = tested on: NCI-H522
HL-60 = tested on: HL-60
OVCAR-5 = tested on: OVCAR-5
OVCAR-3 = tested on: OVCAR-3

Structure (SMILES)	GI50 (COLO 205)	GI50 (SNB-75)	GI50 (NCI-H226)	GI50 (U-251)	GI50 (HCT-15)	GI50 (IGROV-1)	GI50 (NCI-H460)	GI50 (CAKI-1)	GI50 (RXF 393)	GI50 (SF-295)	GI50 (SNB-19)	GI50 (HCC 2998)	GI50 (NCI-H522)	GI50 (HL-60)	GI50 (OVCAR-5)	GI50 (OVCAR-3)
COc1ccc(-c2[nH]c3ccccc3c2CCNS(=O)(=O)c2ccc(C)cc2)cc1	1.83 µM (inactive)	> 10 µM (inactive)	> 7.6 µM (inactive)	8.09 µM (inactive)	7.6 µM	> 6.34 µM (inactive)	6.17 µM (inactive)	> 10 µM (inactive)	> 10 µM (inactive)	> 8.41 µM (inactive)	> 10 µM (inactive)	9.68 µM (inactive)	7.93 µM (inactive)	6.7 µM (inactive)	> 10 µM (inactive)	7.23 µM (inactive)
CC1CC2C(=O)N(c3ccccc3)C(=O)C2c2[nH]c3ccccc3c21 (configuration not stated)	73.3 µM (inactive)	28.9 µM (inactive)		38.8 µM (inactive)	> 100 µM	> 100 µM (inactive)	63.7 µM (inactive)		30.3 µM (inactive)	44.8 µM (inactive)		> 100 µM (inactive)		31.8 µM (inactive)		48.2 µM (inactive)
O=C1CCC(=O)c2ccccc2N1	> 100 µM (inactive)	> 100 µM (inactive)	> 100 µM (inactive)	> 100 µM (inactive)	> 100 µM	> 100 µM (inactive)	> 100 µM (inactive)	> 100 µM (inactive)	> 100 µM (inactive)	> 100 µM (inactive)	> 100 µM (inactive)	> 100 µM (inactive)	> 100 µM (inactive)	> 100 µM (inactive)	> 100 µM (inactive)	> 100 µM (inactive)
CCc1ccccc1NC(=O)C(=O)C(C(=O)c1ccc(OC)cc1)c1ccc(OC)cc1 (configuration not stated)	> 100 µM (inactive)		> 100 µM (inactive)	> 100 µM (inactive)	> 100 µM	> 100 µM (inactive)	> 100 µM (inactive)	> 100 µM (inactive)		> 100 µM (inactive)	> 100 µM (inactive)	> 100 µM (inactive)	> 100 µM (inactive)	> 100 µM (inactive)	> 100 µM (inactive)	> 100 µM (inactive)
CCOC(=O)N1CCc2cc(OC)c(OC)c3c2C1CC3=O (configuration not stated)	> 100 µM (inactive)	> 100 µM (inactive)		> 100 µM (inactive)	> 100 µM	> 100 µM (inactive)	> 100 µM (inactive)	> 100 µM (inactive)	> 100 µM (inactive)	> 100 µM (inactive)	> 100 µM (inactive)	> 100 µM (inactive)	> 100 µM (inactive)	> 100 µM (inactive)	> 100 µM (inactive)	
O=C(NCCCCCCCCNC(=O)c1cnc2ccccc2n1)c1cnc2ccccc2n1	> 100 µM (inactive)	49.9 µM (inactive)	32.1 µM (inactive)	> 100 µM (inactive)	> 100 µM	> 100 µM (inactive)	> 100 µM (inactive)	> 100 µM (inactive)	> 100 µM (inactive)	> 100 µM (inactive)	> 100 µM (inactive)			> 100 µM (inactive)	> 100 µM (inactive)	> 100 µM (inactive)
O=C1c2ccccc2C(=O)N1C/C=N/NS(=O)(=O)c1ccc(F)cc1	> 100 µM (inactive)	59 µM (inactive)	> 100 µM (inactive)	> 100 µM (inactive)	> 100 µM	> 100 µM (inactive)		> 100 µM (inactive)		> 100 µM (inactive)	> 100 µM (inactive)	> 100 µM (inactive)	> 100 µM (inactive)	> 100 µM (inactive)		
O=C1CCC(=O)N1CNc1cccc(NCN2C(=O)CCC2=O)c1	> 100 µM (inactive)	12.9 µM (inactive)		> 100 µM (inactive)	61 µM	87.9 µM (inactive)	> 100 µM (inactive)		> 100 µM (inactive)	> 100 µM (inactive)	> 100 µM (inactive)	> 100 µM (inactive)	> 100 µM (inactive)	20.1 µM (inactive)	> 100 µM (inactive)	> 100 µM (inactive)
CC(=O)Nc1ccc(S(=O)(=O)NN(C)S(=O)(=O)c2ccc(C)cc2)cc1	> 100 µM (inactive)					> 100 µM (inactive)	> 100 µM (inactive)	> 100 µM (inactive)	> 100 µM (inactive)	> 100 µM (inactive)	> 100 µM (inactive)	> 100 µM (inactive)	> 100 µM (inactive)	> 100 µM (inactive)	> 100 µM (inactive)	> 100 µM (inactive)
Cc1ccc(C)c(NC(=O)CC/C(=N\NC(=O)C(N)=O)C(C)C(=O)c2ccc(O)cc2)c1 (configuration not stated)	> 100 µM (inactive)		> 100 µM (inactive)	> 100 µM (inactive)	> 100 µM	> 100 µM (inactive)	> 100 µM (inactive)	> 100 µM (inactive)	61.1 µM (inactive)	> 100 µM (inactive)	> 100 µM (inactive)	> 100 µM (inactive)		> 100 µM (inactive)	> 100 µM (inactive)	> 100 µM (inactive)
